In patent publication US20240360154A1, “AROYL SUBSTITUTED TRICYCLIC COMPOUND, PREPARATION METHOD THEREFOR AND USE THEREOF” (GENFLEET THERAPEUTICS (SHANGHAI) INC., priority 2020, published 2024):

Assays:
[1] = molecular target: p-BTK (C481S) (Homo sapiens (Human), UniProt Q06187, C481S); assay: p-BTK cell experiment, HEK293 transfected with C481S-BTK plasmid (P-BTK Y223 sandwich ELISA); assay type: cell-based; settings: HEK293 cells, compound cultured for two hours
Method: (§1) Day 1: HEK293 cells (ADDEXBIO, T0011001) at logarithmic growth phase were taken, digested with enzyme EDTA, collected and counted, and 2E6 cells were inoculated in a 10 cm culture dish and cultured overnight. Day 2: A mixed solution containing 6 μg of WT-BTK/C481S-BTK plasmid and 18 μL of FuGENE HD transfection reagent was prepared by using 1000 μL of Opti-MEM. After standing at room temperature for 10 minutes, the mixed solution was slowly added to the culture dish with a pipettor and cultured overnight. Day 3: The culture dish was taken out, and the cells were digested with enzyme EDTA, collected and counted, and 1E4 cells were inoculated in a 96-well cell culture plate and cultured overnight. A 3.16-fold gradient concentration stock solution of 1000× compound was prepared using DMSO, and placed at room temperature. Day 4: A prepared 1000× compound stock solution was taken, and diluted 200-fold to 5× compound stock solution with culture medium. 5× compound stock solution was added to each cell culture well with a final concentration of 1× compound stock solution and a DMSO content of 0.1%. DMSO was used as an experimental control. After the compound was added and cultured for two hours, the residual culture medium was removed. 100 μL of cell lysis buffer was added to each well, stood on ice for 30 minutes, and ultrasonically lysed with ice water for 5 minutes. After diluting the cell lysate in proportion, 80 μL of the mixture was transfer to an ELISA plate, and 80 μL of cell lysis buffer was added to the blank well. After incubating in an incubator at 37° C. for 2 hours, the plate was taken and the antibody incubation and color development termination operation were completed according to the instructions of Pathscan P-BTK (Y223) Sandwich ELISA Kit (Cell Signaling #23843 CA), and finally the OD value was read. The inhibition rate of the compound (%)=(ODcontrol−ODcompound)/(ODcontrol−ODblank)×100% was calculated. The compound gradient dilution concentration and the corresponding cell proliferation inhibition rate were fit by using Prism 8 four-parameter method, and IC50 value was calculated.

[2] = molecular target: BTK (C481S) (Homo sapiens (Human), UniProt Q06187, C481S); assay: BTK C481S enzyme experiment (ADP-Glo kinase assay); assay type: biochemical; settings: 10 nM BTK C481S, ATP 125 μM, Poly(Glu4, Tyr1), 90 minutes at 20° C.
Sequence of BTK (C481S) (Q06187 whole entry C481S): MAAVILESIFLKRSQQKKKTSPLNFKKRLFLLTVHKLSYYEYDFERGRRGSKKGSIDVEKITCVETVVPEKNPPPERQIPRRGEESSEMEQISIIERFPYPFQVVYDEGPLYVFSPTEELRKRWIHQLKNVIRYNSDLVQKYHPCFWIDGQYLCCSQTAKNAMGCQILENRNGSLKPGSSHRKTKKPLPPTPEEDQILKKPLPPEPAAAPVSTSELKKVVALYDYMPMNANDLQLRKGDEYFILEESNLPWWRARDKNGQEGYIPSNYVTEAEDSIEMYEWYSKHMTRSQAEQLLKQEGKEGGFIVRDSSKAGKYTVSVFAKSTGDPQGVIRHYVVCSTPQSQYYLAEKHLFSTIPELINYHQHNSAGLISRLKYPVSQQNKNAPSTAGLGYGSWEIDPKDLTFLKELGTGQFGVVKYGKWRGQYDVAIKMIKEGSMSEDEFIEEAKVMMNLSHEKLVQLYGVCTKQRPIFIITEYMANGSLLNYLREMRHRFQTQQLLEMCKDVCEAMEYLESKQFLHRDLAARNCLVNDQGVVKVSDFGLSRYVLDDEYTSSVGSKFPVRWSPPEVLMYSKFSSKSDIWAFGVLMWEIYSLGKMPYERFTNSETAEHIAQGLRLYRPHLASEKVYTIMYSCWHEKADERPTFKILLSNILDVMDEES
Outline: (§2)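 Wild-type or C481S BTK, added as 2× solution at 10 nM, preincubated 10 min with 3-fold compound dilutions in 50 mM HEPES pH 7.5, 10 mM MgCl2, 2 mM DTT, 0.0015% Brij-35. ADP-Glo luminescence norm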

[3] = molecular target: p-BTK (WT) (Homo sapiens (Human), UniProt Q06187); assay: p-BTK cell experiment, HEK293 transfected with WT-BTK plasmid (P-BTK Y223 sandwich ELISA); assay type: cell-based; settings: HEK293 cells, compound cultured for two hours
Sequence of p-BTK (WT) (Q06187 whole entry): as the sequence (Q06187 whole entry C481S) above, with S481C counted along it
Method: as §1

[4] = molecular target: BTK (Homo sapiens (Human), UniProt Q06187); assay: BTK enzyme experiment (ADP-Glo kinase assay); assay type: biochemical; settings: 10 nM BTK, ATP 125 μM, Poly(Glu4, Tyr1), 90 minutes at 20° C.; read-out: BTK(WT) IC50
Sequence of BTK (Q06187 whole entry): as the sequence (Q06187 whole entry C481S) above, with S481C counted along it
Outline: as §2

[5] = tested on: TMD-8 cells; assay: TMD-8 proliferation inhibition experiment; assay type: cell-based; settings: human diffuse large B lymphoma cells, three days incubation
Outline: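 Log-phase cells seeded in 384-well plates (600 TMD-8 in RPMI 1640, 2000 OCI-LY10 in IMDM, both 10% FBS), then exposed one day later to 3-fold compound dilutions at 0.25% DMSO for three days. ADP-Glo luminescence read; inhibition versus DMSO and medium-only blank, IC50 by four-parameter fit.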

Sequence of p-BTK (C481S) (Q06187 whole entry C481S): as the sequence (Q06187 whole entry C481S) above

| Compound | IC50 [1] [nM] | IC50 [2] [nM] | IC50 [3] [nM] | IC50 [4] [nM] | IC50 [5] [nM] | IC50 ([5]; Homo sapiens, TMD8, 72 h) [nM] |
| --- | --- | --- | --- | --- | --- | --- |
| N#C[C@@H]1CC[C@]2(C1)Nc1c(cnc3[nH]cc(C(=O)c4ccc(Oc5ccccc5)cc4Cl)c13)NC2=O (single isomer, unassigned) [Z26-1] | 38.4 | 15.4 | 31.5 | 15.6 | 47.7 | – |
| O=C(c1ccc(Oc2ccccc2)cc1Cl)c1c[nH]c2ncc3c(c12)N[C@]1(CCCOC1)C(=O)N3 (single isomer, unassigned) [Z16-1] | 36.6 | 9.1 | 17.3 | 7.6 | 42.8 | – |
| COC1CCC2(C1)Nc1c(cnc3[nH]cc(C(=O)c4ccc(Oc5ccccc5)cc4Cl)c13)NC2=O (single isomer, unassigned) [Z25-2, 9′-(2-chloro-4-phenoxybenzoyl)-3-methoxy-4′,7′-dihydrospiro[cyclopentane-1,2′-pyrrolo[3′,2′:5,6]pyrido[3,4-b]pyrazin]-3′(1′H)-one] | 32.7 | 8.7 | 15.2 | 14.7 | 80.4 | – |
| COCC[C@]1(C)Nc2c(cnc3[nH]cc(C(=O)c4ccc(Oc5ccccc5)cc4Cl)c23)NC1=O [Z78-2] | 119 | 17.4 | 68.3 | 10.2 | 254 | – |
| CC(=O)N1CC[C@]2(C1)Nc1c(cnc3[nH]cc(C(=O)c4ccc(Oc5ccccc5)cc4Cl)c13)NC2=O (single isomer, unassigned) [Z4-1] | 97.6 | 6.8 | 70.8 | 17 | 305 | – |
| COC[C@]1(C)Nc2c(cnc3[nH]cc(C(=O)c4ccc(Oc5ccccc5)cc4Cl)c23)NC1=O [Z13-1] | 42.2 | 9.8 | 36.2 | 11.4 | 37.9 | – |
| C[C@@]1(CO)Nc2c(cnc3[nH]cc(C(=O)c4ccc(Oc5ccccc5)cc4Cl)c23)NC1=O (single isomer, unassigned) [Z9-2] | 134 | 10.8 | 62.6 | 9.5 | 73.8 | – |
| O=C(c1ccc(Oc2ccccc2)cc1Cl)c1c[nH]c2ncc3c(c12)N[C@@]1(CC[C@H](O)C1)C(=O)N3 (single isomer, unassigned) [Z24-d] | 15.3 | 3.1 | 16.9 | 3.4 | 52 | – |
| [2H]C([2H])([2H])OC[C@]1(C)Nc2c(cnc3[nH]cc(C(=O)c4ccc(Oc5ccccc5)cc4Cl)c23)NC1=O (single isomer, unassigned) [Z66-1] | 38.1 | 3.8 | 29.6 | 6.7 | – | 94.8 |
| CCOC[C@]1(C)Nc2c(cnc3[nH]cc(C(=O)c4ccc(Oc5ccccc5)cc4Cl)c23)NC1=O (single isomer, unassigned) [Z67-1] | 42.6 | 10.3 | 37.3 | 9.6 | – | 161 |
| O=C(c1ccc(Oc2ccccc2)cc1Cl)c1c[nH]c2ncc3c(c12)N[C@@]1(CC[C@@H](O)C1)C(=O)N3 (single isomer, unassigned) [Z24-a] | 50 | 8.4 | 46.9 | 5.5 | 113 | – |
| COC[C@@]1(C)Nc2c(cnc3[nH]cc(C(=O)c4ccc(Oc5ccccc5)cc4F)c23)NC1=O (single isomer, unassigned) [Z71-1] | 40.3 | 8.3 | 32.3 | 8.5 | 180 | – |
| COCC1(C)Nc2c(cnc3[nH]cc(C(=O)c4ccc(Oc5cc(C)ccn5)cc4Cl)c23)NC1=O (single isomer, unassigned) [Z64-1, 9-(2-chloro-4-((4-methylpyridin-2-yl)oxy)benzoyl)-2-(methoxymethyl)-2-methyl-1,2,4,7-tetrahydro-3H-pyrrolo[3′,2′:5,6]pyrido[3,4-b]pyrazin-3-one] | 198 | 10.7 | 58.5 | 6.3 | – | 194 |
| O=C(c1ccc(Oc2ccccc2)cc1Cl)c1c[nH]c2ncc3c(c12)N[C@@]1(CCCOC1)C(=O)N3 (single isomer, unassigned) [Z16-2] | 10.4 | 5.6 | 10.4 | 5 | 23 | – |
| O=C(c1ccc(Oc2ccccc2)cc1Cl)c1c[nH]c2ncc3c(c12)N[C@]1(CC[C@H](O)C1)C(=O)N3 (single isomer, unassigned) [Z24-b] | 39 | 5.8 | 39.5 | 4.2 | 80.8 | – |

More lines, main results first:

| IC50 [1] [nM] | IC50 [2] [nM] | IC50 [3] [nM] | IC50 [4] [nM] | Compound | IC50 [5] [nM] | IC50 ([5]; Homo sapiens, TMD8, 72 h) [nM] |
| --- | --- | --- | --- | --- | --- | --- |
| 27.5 | 21.5 | 16.7 | 16.8 | [2H]C([2H])([2H])OC[C@]1(C)Nc2c(cnc3[nH]cc(C(=O)c4ccc(Oc5ccccc5F)cc4Cl)c23)NC1=O [Z160, (S)-9-(2-chloro-4-(2-fluorophenoxy)benzoyl)-2-((methoxy-d3)methyl)-2-methyl-1,2,4,7-tetrahydro-3H-pyrrolo[3′,2′:5,6]pyrido[3,4-b]pyrazin-3-one] | – | 108 |
| 49.4 | 10.3 | 50.1 | 12.9 | CN(C)C1CCC2(C1)Nc1c(cnc3[nH]cc(C(=O)c4ccc(Oc5ccccc5)cc4Cl)c13)NC2=O (stereo not shown) [Z137] | 139 | – |
| 114 | 7.6 | 80.5 | 6.7 | COC[C@]1(C)Nc2c(cnc3[nH]cc(C(=O)c4ccc(Oc5ccccn5)cc4Cl)c23)NC1=O [Z136, (S)-9-(2-chloro-4-(pyridin-2-yloxy)benzoyl)-2-(methoxymethyl)-2-methyl-1,2,4,7-tetrahydro-3H-pyrrolo[3′,2′:5,6]pyrido[3,4-b]pyrazin-3-one] | – | 178 |
| 27.6 | 5.1 | 31.5 | 7.6 | O=C(c1ccc(Oc2ccccc2)cc1Cl)c1c[nH]c2ncc3c(c12)NC1(CCOCC1)C(=O)N3 [Z14] | 57 | – |
| 33 | 13.2 | 19.3 | 23.5 | [2H]C([2H])([2H])[C@@]1(COC)Nc2c(cnc3[nH]cc(C(=O)c4ccc(Oc5ccccc5)cc4Cl)c23)NC1=O [Z149, (S)-9-(2-chloro-4-phenoxybenzoyl)-2-(methoxymethyl)-2-(methyl-d3)-1,2,4,7-tetrahydro-3H-pyrrolo[3′,2′:5,6]pyrido[3,4-b]pyrazin-3-one] | – | 130 |
| 36.1 | 15.5 | 16.5 | 11.8 | COC[C@]1(C)Nc2c(cnc3[nH]cc(C(=O)c4ccc(Oc5nccc(C)c5F)cc4Cl)c23)NC1=O [Z132, 9-(2-chloro-4-((3-fluoro-4-methylpyridin-2-yl)oxy)benzoyl)-2-(methoxymethyl)-2-methyl-4,7-dihydro-1H-pyrrolo[3′,2′:5,6]pyrido[3,4-b]pyrazin-3(2H)-one] | – | 133 |
| 7.26 | 6.6 | 3.98 | 4.5 | COC[C@]1(C)Nc2c(cnc3[nH]cc(C(=O)c4ccc(Oc5c(F)cccc5OC)cc4Cl)c23)NC1=O [Z168, (S)-9-(2-chloro-4-(2-fluoro-6-methoxyphenoxy)benzoyl)-2-(methoxymethyl)-2-methyl-1,2,4,7-tetrahydro-3H-pyrrolo[3′,2′:5,6]pyrido[3,4-b]pyrazin-3-one] | – | 22.4 |
| 58 | 14.5 | 23.5 | 22.8 | CC1(CO)Nc2c(cnc3[nH]cc(C(=O)c4ccc(Oc5ccccc5)cc4Cl)c23)NC1=O (stereo not shown) [Z9, 9-(2-chloro-4-phenoxybenzoyl)-2-(hydroxymethyl)-2-methyl-1,2,4,7-tetrahydro-3H-pyrrolo[3′,2′:5,6]pyrido[3,4-b]pyrazin-3-one] | – | 232 |
